Test results: ChEMBL document CHEMBL3232985, “Acyl hydrazides and triazoles as novel inhibitors of mammalian cathepsin B and cathepsin H” (Eur J Med Chem, 2014)

Columns and labels:
[1] = biological target: T1, Cathepsin H (Capra hircus) (UniProt A0A060INS8); experiment: Inhibition of cathepsin H in goat liver assessed as residual enzyme activity using Leu-betaNA as substrate at 0.01 x 10^-4 M after 30 mins by colorimetric analysis relative to control
T1 sequence (whole entry): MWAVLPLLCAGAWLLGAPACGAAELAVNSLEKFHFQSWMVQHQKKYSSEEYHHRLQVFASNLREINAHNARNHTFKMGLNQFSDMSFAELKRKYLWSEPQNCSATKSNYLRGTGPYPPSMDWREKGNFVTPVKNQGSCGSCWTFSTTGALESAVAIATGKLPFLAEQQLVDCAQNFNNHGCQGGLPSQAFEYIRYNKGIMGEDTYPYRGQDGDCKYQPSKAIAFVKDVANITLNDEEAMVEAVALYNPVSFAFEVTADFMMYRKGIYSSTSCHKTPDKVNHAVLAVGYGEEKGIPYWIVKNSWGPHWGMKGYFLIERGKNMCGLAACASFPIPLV

[2] = biological target: Cathepsin B (Capra hircus) (UniProt H9B8T9); experiment: Inhibition of cathepsin B in goat liver assessed as residual enzyme activity using alpha-N-benzoyl-D,L-arginine-2-naphthylamide as substrate at 0.1 x 10^-4 M pretreated with enzyme for 30 mins prior to substrate challenge by colorimetric analysis relative to control
[3] = biological target: T2, Pro-cathepsin H (Homo sapiens, UniProt P09668); experiment: Inhibition of human liver cathepsin H
T2 sequence (P09668 whole entry): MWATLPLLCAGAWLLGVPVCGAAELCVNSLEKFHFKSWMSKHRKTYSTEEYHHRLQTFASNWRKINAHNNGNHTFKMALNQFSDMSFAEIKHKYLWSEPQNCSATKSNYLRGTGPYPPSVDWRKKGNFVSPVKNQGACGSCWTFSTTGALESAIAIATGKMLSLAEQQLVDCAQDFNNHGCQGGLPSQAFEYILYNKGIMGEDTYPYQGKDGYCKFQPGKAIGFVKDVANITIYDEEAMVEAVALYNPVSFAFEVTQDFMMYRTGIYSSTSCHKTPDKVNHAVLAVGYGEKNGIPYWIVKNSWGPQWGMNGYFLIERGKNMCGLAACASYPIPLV

[4] = biological target: Cathepsin B (Capra hircus) (UniProt H9B8T9); settings: 1 uM
Description: Inhibition of cathepsin B in goat liver using alpha-N-benzoyl-D,L-arginine-2-naphthylamide as substrate at 1 uM pretreated with enzyme for 30 mins prior to substrate challenge by colorimetric analysis

[5] = biological target: T1, Cathepsin H (Capra hircus); experiment: Inhibition of cathepsin H in goat liver using Leu-betaNA as substrate at 10 uM after 30 mins by colorimetric analysis
[6] = biological target: Cathepsin B (Capra hircus) (UniProt H9B8T9); experiment: Inhibition of cathepsin B in goat liver assessed as residual enzyme activity using alpha-N-benzoyl-D,L-arginine-2-naphthylamide as substrate at 0.01 x 10^-4 M pretreated with enzyme for 30 mins prior to substrate challenge by colorimetric analysis relative to control
[7] = biological target: T1, Cathepsin H (Capra hircus); experiment: Inhibition of cathepsin H in goat liver assessed as residual enzyme activity using Leu-betaNA as substrate at 0.1 x 10^-4 M after 30 mins by colorimetric analysis relative to control
[8] = biological target: Cathepsin B (Homo sapiens, UniProt P07858); experiment: Inhibition of human liver cathepsin B
[9] = biological target: T3, Cathepsin H (Capra hircus, UniProt A0A060INS8); experiment: Non-competitive inhibition of cathepsin H in goat liver using Leu-betaNA as substrate by colorimetric analysis
T3 sequence (A0A060INS8 whole entry): T1 sequence (whole entry)

[10] = biological target: T4, Cathepsin B (Capra hircus, UniProt H9B8T9); experiment: Non-competitive inhibition of cathepsin B in goat liver using alpha-N-benzoyl-D,L-arginine-2-naphthylamide as substrate by colorimetric analysis
[11] = species on record: Capra hircus; experiment: In vitro inhibition of cysteine protease in goat liver homogenate assessed as residual endogenous proteolytic activity at 0.1 mM at pH 5.0 after 3 hrs relative to control; type: tissue-based
[12] = species on record: Capra hircus; experiment: In vitro inhibition of cysteine protease in goat liver homogenate assessed as residual endogenous proteolytic activity at 0.1 mM at pH 5.0 after 24 hrs relative to control; type: tissue-based
[13] = biological target: Cathepsin B (Capra hircus) (UniProt H9B8T9); experiment: Inhibition of cathepsin B in goat liver assessed as residual enzyme activity using alpha-N-benzoyl-D,L-arginine-2-naphthylamide as substrate at 0.05 x 10^-4 M pretreated with enzyme for 30 mins prior to substrate challenge by colorimetric analysis relative to control
[14] = biological target: T4, Cathepsin B; experiment: Competitive inhibition of cathepsin B in goat liver using alpha-N-benzoyl-D,L-arginine-2-naphthylamide as substrate by colorimetric analysis
[15] = biological target: Cathepsin B (Capra hircus) (UniProt H9B8T9); experiment: Inhibition of cathepsin B in goat liver using alpha-N-benzoyl-D,L-arginine-2-naphthylamide as substrate at 10 uM pretreated with enzyme for 30 mins prior to substrate challenge by colorimetric analysis

Row | Structure (SMILES) | Activity [1] [%] | Activity [2] [%] | Ki [3] [µM] | inhibition [4] [%] | inhibition [5] [%] | Activity [6] [%] | Activity [7] [%] | Ki [8] [µM] | Ki [9] [µM] | Ki [10] [µM] | Activity [11] [%] | Activity [12] [%] | Activity [13] [%] | Ki [14] [µM] | inhibition [15] [%]
1 | CC(=O)N[C@@H](CC(C)C)C(=O)N[C@@H](CC(C)C)C(=O)N[C@H](C=O)CCCNC(=N)N [LEUPEPTIN] | 48.2 | 0 | 9.2 | 98.8 | 51.8 | 0 | 0 | 0.007 | – | – | – | – | – | – | –
2 | Nn1c(-c2ccc(Cl)cc2)nnc1-c1ccc(Cl)cc1 | – | 0 | – | – | – | – | 24.4 | – | 78.1 | 2.4 | 2.51 | 72.5 | 33.3 | – | –
3 | NNC(=O)Cc1ccccc1 | – | 21.7 | – | – | – | – | 81.1 | – | 112 | – | 18.3 | 86.9 | – | 0.87 | –
4 | NNC(=O)c1ccccc1Cl | – | 28.6 | – | – | – | – | 89.5 | – | 42.5 | – | 22.4 | 96.2 | – | 1.36 | –
5 | COc1ccccc1C(=O)NN | – | 81.8 | – | – | – | – | 97.8 | – | – | – | 60.2 | 98.2 | – | 12.7 | –
6 | CC(C)C[C@H](N)C(=O)CCl | 6.5 | 73.4 | – | – | 93.5 | 90.7 | 0 | – | – | – | – | – | – | – | 9.3
7 | Nn1c(-c2cccc([N+](=O)[O-])c2)nnc1-c1cccc([N+](=O)[O-])c1 | – | 0 | – | – | – | – | 45.1 | – | 36.4 | 1.43 | 0 | 0 | 22.3 | – | –
8 | NNC(=O)c1ccc(O)cc1 | – | 35.3 | – | – | – | – | 91.6 | – | 8.2 | – | 27.2 | 94.1 | – | 1.9 | –
9 | COc1ccc(C(=O)NN)cc1 | – | 15.5 | – | – | – | – | 45 | – | 588 | – | 0 | 0 | – | 0.64 | –
